Reference: patent US6605754B1, “DNA constructs and plants incorporating them” (priority 1992, dated 2003)

Assays:
[1] = tested on: alcA:35S chimeric promoter (CAT reporter gene expression); test: CAT expression from wild type A nidulans alcA-CAT transformants GA2-1 and GA2-5; format: cell-based, Aspergillus nidulans
Experimental: Conidial suspensions of A nidulans were grown in supplemented minimal medium containing 0.1% fructose as the carbon source, for 20 hours at 200 revs/min in an orbital incubator at 37° C. Inducing chemical was added to the mycelia at 20 hours and allowed to grow for a further 4 hours. The mycelia was harvested as before. Uninduced mycelia was allowed to grow for 24 hours in the medium described above.
300 mgs of mycelia, frozen in liquid nitrogen, was ground in a chilled pestle and mortar with an equal amount of acid washed sand for 20 seconds. 1 ml of extraction buffer, (0.1 M Tris pH 7.5), was added and the mycelia ground for a further 30 seconds. Another 1 ml of extraction buffer was added and the mycelia was ground again for 30 seconds. 1 ml of the ground mycelia mixture was transferred into eppendorfs and centrifuged at 13,000 revs/min for 5 minutes in a microcentrifuge. The supernatant was transferred to new eppendorfs and the protein concentration estimated using the Bradford's assay.
Stably transformed A nidulans was obtained by co-transforming a pyrG89 strain with the pDJB3 and palcA-CAT/pUC plasmids using the PEG method. Plasmid palcA-CAT/pUC contains the CAT reporter gene between the alcA:35S chimeric promoter and the nos transcription terminator. Two independent transformants (GA2-1 and GA2-5) were obtained which contained uninterrupted copies of the alcA-CAT construct. This was shown by probing genomic DNA, restricted with HindIII, with the 0.7 kb SalI fragment of the CAT gene.
The CAT activity of the alcA-CAT A nidulans transformants was measured when they were grown under a variety of conditions. FIG. 4 is a graph showing CAT expression from the GA2-1 and GA2-5 transformants (wild type with alcA-CAT construct) growing in 0.1% fructose (F) or 1% glucose (G) in the absence or presence of 50 mM ethyl methyl ketone as inducer (I). […] The induction of CAT was prevented when the transformants were grown in 1% glucose even in the presence of inducer indicating the carbon catabolyte repression function of the alcA promoter was retained.
FIG. 5 is a graph showing the effect of cyclohexanone concentration (mM) on CAT expression in the transformant GA2-1 growing in 0.1% fructose (F) or 1% glucose (G).

[2] = tested on: alc expression cassette 35S-alcR/alcA-CAT (CAT reporter gene expression); test: CAT activity in leaves of stably transformed tobacco after leaf paint with inducer; format: in vivo
Experimental: Cyclohexanone was applied to the plant leaves as a paint. The cyclohexanone paint consisted of a 10% solution of 950 g/L cyclohexanone, 35 g/L syperonic NDE 1800, 16.5 g/L Tween 85 in thickener. Both surfaces of the leaf were applied with paint at 100 μl solution per 16-25 cm^2 of leaf surface, on days 0 and 2. Leaf tissue was harvested prior to inducer application and at appropriate times after the second application of paint. 1 cm^2 of leaf tissue was removed with a sterile scalpel, put in an eppendorf, and immersed in liquid nitrogen. CAT assays were undertaken within 4 hours of leaf sampling.
The leaf tissue was allowed to defrost at room temperature for several minutes after storage in liquid nitrogen. A sterile micropestle was used to grind the leaf tissue in the eppendorf for 30 seconds and then 100 μl of 100 mM Tris pH 7.8 was added. The plant mixture was then vortexed for 20 seconds and centrifuged at 13,000 revs/min for 5 minutes. The supernatant was transferred to a new eppendorf. 50 μl of leaf extract was used for a CAT assay and the rest was used to determine the protein concentration wit the Bradford's method.
CAT assays were undertaken according to the Dupont method as described in Example 4.
The data obtained from this analysis are shown in FIG. 9: at each time point, results are given in the order S34:D3:T1. Leaves were treated with cyclohexanone leaf paint on day 0 and day 2. Samples of leaf tissue were taken immediately prior to each treatment (0-0 and 2-0 in FIG. 9) and thereafter at seven intervals up until day 3. Protein extracts were made from the leaf samples and CAT activity determined in the samples using the diffusion assay described above.
The leaves of the plants were painted with a 10% iso-propanol solution at 0 and 60 minutes and the CAT expression of leaf samples was measured at 240 minutes. The CAT expression found in the alcA-CAT and alcA-CAT/35S-alcR transgenic plants at 0 minutes was low as it was in the control untransformed tobacco plants.

[3] = tested on: ADHI expressed from the alcA gene; details: Creaser et al 1984 / shown previously; cited from earlier work

SMILES | CAT activity of the alcA-CAT reporter construct ([1]; GA2-1 and GA2-5, 0.1% fructose, 50 mM inducer) | induction of CAT ([1]; GA2-1 and GA2-5, 1% glucose, 50 mM inducer) | effect on CAT activity [2] | CAT expression level after application to leaves ([2]; plant D3 (35S-alcR/alcA-CAT), cyclohexanone leaf paint) | time of peak CAT activity after the second inducing treatment ([2]; plant D3, leaf paint on day 0 and day 2) | CAT activity as % of the maximum activity seen in the 35S-alcR/alcA-CAT leaves ([2]; plants T1 and S34 after cyclohexanone leaf paint) | inducer strength for alcA / ADHI [3] | concentration of optimal inducing ability (concentration curve) ([1]; GA2-1 transformant) | induction of CAT expression ([1]; GA2-1 transformant) | increase in CAT activity ([2]; 10% solution painted at 0 and 60 minutes, measured at 240 minutes, alcA-CAT, alcA-CAT/35S-alcR and control plants) | effect on the alc expression cassette ([2]; tobacco plants)
CCC(C)=O [EMK, butan-2-one (ethyl methyl ketone)] | high | prevented |  |  |  |  |  |  |  |  | 
O=C1CCCCC1 [cyclohexanone] |  |  | no effect | high CAT expression level | 160 min | 5-20% | potent inducer | 25 mM | found to induce CAT expression |  | 
CC(C)O [iso-propanol, propan-2-ol] |  |  |  |  |  |  | weak inducer |  |  | no significant increase | no apparent effect
